# Reference: patent US8765946B2, “Methods of preparing and using quinazoline and quinoline derivatives” (priority 2006, dated 2014)
# Assays:
# [1] = test system: colorectal cancer LoVo cells; test: Cell growth inhibition assay (MTS assay), LoVo; format: cell-based; conditions: Homo sapiens, 48 hours
# [2] = biological target: T1, A431 cells EGFR-TK phosphorylation stimulated by EGF (Homo sapiens, UniProt P00533); test: Inhibition of cellular EGFR-TK phosphorylation stimulated by EGF in A431 cells; format: cell-based; conditions: for inhibition at 3 µM: A-431, concentration of 3 μM, A431 cells, EGF stimulated, one-time measurement at a single concentration (preliminary selection), NA = No activity, read-out: Inhibition Percent (%)
# T1 construct: against A431 cells EGFR-TK; endogenous in cells; host or cells: A431 cells
# T1 sequence (P00533 25-1210): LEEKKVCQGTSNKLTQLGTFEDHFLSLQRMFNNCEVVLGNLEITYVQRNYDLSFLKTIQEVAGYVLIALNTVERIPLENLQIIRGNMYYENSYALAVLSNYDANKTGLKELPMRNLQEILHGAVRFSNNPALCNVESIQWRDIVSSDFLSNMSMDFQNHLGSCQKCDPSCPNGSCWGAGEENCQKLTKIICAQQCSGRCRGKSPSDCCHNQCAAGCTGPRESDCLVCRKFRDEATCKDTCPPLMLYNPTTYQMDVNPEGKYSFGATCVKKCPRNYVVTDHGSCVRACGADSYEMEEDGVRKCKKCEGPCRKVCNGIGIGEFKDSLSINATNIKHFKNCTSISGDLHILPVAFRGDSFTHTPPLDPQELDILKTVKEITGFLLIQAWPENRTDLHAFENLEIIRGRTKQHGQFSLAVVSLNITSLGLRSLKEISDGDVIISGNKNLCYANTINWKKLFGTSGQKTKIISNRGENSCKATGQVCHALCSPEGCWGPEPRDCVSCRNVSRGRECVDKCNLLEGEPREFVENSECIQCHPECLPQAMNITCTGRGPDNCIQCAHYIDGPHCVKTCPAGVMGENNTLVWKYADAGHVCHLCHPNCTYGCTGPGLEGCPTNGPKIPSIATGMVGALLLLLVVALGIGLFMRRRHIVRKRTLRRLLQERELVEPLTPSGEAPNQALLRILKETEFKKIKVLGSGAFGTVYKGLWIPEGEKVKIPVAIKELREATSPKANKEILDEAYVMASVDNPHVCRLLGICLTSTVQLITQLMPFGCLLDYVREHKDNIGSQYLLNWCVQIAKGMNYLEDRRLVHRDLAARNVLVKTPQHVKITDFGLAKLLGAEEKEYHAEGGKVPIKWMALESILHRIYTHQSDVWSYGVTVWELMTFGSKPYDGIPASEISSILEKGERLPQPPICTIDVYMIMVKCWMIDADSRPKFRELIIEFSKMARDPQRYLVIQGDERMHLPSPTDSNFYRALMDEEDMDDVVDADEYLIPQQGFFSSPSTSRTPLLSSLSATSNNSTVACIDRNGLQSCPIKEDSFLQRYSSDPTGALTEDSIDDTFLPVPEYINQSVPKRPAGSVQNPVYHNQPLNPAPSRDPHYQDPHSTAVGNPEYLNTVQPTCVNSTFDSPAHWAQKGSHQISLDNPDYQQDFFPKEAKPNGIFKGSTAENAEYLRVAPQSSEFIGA
# Method: Inhibition Experiment of Cellular Epidermal Growth Factor Receptor Tyrosine Kinase
# 1) A431 cells were cultured in a medium which was prepared by adding 10% FCS into another medium comprising 50% DMEM and 50% F12.
# 2) A431 cells grown in six-well plates were cultured in a serum-free medium for 24 hours. During the 24 hour period the medium was replenished once after 12 hours.
# 3) A solution containing a compound to be assessed was added the A431 cells and the cells were cultured for 2 hours, supplemented twice by a medium free of the compound, and then EGF (100 ng/well) was added, and cultured for 5 minutes.
# 4) A431 cell homogenate was prepared by Laemili buffer which comprised 2% sodium dodecyl sulfonate (SDS), 5% 2-mercaptoethanol, 10% glycerol and 5 mM Tris (pH 6.8).
# (§1) 5) The A431 cell homogenate was heated for 5 minutes at 100° C.
# 6) Proteins in the A431 cell homogenates were separated by PAGE and transferred onto a nitrocellulose membrane, and an infrared reading was obtained.
# [3] = biological target: T1, A431 cells EGFR-TK phosphorylation stimulated by EGF; test: Irreversible inhibition of cellular EGFR-TK (A431 cells, inhibition and recovery); format: cell-based; conditions: for Inhibition percent(%): A431 cells, 2 hours with compound, supplemented twice by compound-free medium, then EGF; for Activity (irreversible or reversible inhibitor): A431 cellular model test
# Method: Irreversible Inhibition of Cellular Epidermal Growth Factor Receptor Tyrosine Kinase (EGFR-TK)
# 1) A431 cells were cultured in a medium prepared by adding 10% FCS into another medium comprising 50% DMEM and 50% F12.
# 2) The A431 cells grown in six-well plates were cultured in a serum-free medium for 24 hours, during the period the medium was replenished once after 12 hours.
# 3) A solution containing a compound to be assessed was added to the A431 cells and cultured for 2 hours, supplemented twice by a medium free of the compound, and then EGF (100 ng/well) was added, and cultured for 5 minutes.
# 4) A431 cell homogenate was prepared by Laemili buffer which comprised 2% sodium dodecyl sulfonate (SDS), 5% 2-mercaptoethanol, 10% glycerol and 5 mM Tris; the pH value is 6.8.
# as §1
# 6) Proteins in the A431 cell homogenates were separated by PAGE, transferred onto a nitrocellulose membrane, and an infrared reading was obtained.
# A431 cells [4] = test: Cell growth inhibition assay (MTS assay), A431; format: cell-based; conditions: Homo sapiens
# [5] = biological target: T2, BT474 cells Her-2 receptor TK phosphorylation stimulated by Her-2 (Homo sapiens, UniProt P04626); test: Inhibition of BT474 cells Her-2 receptor TK phosphorylation; format: cell-based
# T2 construct: against BT474 cells; endogenous in cells; host or cells: BT474 cells
# T2 sequence (P04626 23-1255): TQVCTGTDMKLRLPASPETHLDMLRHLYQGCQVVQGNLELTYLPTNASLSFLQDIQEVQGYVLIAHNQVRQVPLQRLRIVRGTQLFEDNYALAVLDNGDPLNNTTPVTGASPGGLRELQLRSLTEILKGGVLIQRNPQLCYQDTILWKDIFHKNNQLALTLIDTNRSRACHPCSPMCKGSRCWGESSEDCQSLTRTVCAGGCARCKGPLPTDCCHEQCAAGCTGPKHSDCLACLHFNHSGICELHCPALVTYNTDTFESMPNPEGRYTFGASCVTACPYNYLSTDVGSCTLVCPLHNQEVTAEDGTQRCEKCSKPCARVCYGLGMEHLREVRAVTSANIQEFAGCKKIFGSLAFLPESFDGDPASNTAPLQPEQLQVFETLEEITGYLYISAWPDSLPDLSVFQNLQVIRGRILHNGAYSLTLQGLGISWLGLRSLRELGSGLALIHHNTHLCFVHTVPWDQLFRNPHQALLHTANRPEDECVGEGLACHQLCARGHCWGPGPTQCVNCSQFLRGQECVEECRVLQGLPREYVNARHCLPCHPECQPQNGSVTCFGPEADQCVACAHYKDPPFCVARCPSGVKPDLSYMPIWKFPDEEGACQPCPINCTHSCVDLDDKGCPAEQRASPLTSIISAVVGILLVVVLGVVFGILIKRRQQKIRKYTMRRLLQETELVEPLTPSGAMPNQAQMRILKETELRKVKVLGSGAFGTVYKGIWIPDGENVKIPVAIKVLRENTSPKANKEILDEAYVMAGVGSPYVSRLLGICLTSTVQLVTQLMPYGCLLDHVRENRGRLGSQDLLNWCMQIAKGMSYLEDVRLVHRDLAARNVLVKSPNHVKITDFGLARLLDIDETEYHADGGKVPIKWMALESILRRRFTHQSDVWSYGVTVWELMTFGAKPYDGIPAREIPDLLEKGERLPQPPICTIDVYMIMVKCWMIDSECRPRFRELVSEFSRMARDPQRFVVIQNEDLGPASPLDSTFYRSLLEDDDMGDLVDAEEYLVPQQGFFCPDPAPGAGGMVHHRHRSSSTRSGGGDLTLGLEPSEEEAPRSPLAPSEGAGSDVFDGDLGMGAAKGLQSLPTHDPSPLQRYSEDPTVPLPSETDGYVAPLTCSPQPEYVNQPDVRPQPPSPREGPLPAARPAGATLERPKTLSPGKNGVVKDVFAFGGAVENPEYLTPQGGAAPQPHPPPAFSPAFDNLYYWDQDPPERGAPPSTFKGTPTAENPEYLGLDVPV
# Method: Following literature procedured, inhibitory activity of representative compounds against BT474 cells Her-2 receptor TK phosphorylation stimulated by Her-2 was measured, and partial results are listed in Table 6.
# BT474 cells [6] = test: Cell growth inhibition assay (MTS assay), BT474; conditions: Homo sapiens, BT-474, 48 h, read-out: Growth inhibition activity (EC50) BT474
# Method: (§2) Cell Growth Inhibition Assay (MTS Assay)
# (§3) A431: human epithelial adenocarcinoma cell strain; LoVo: human colorectal cancer cell strain; BT474: breast cancer; SK-Br-3: breast cancer; SIT solution (SIGMA); RPMI1640 culture solution; phosphoric acid buffer; Dimethyl Sulphoxide (DMSO); MTS solution (Promega), 96 well cell culture plate, representative anti-cancer compounds.
# (§4) The cells were cultured overnight under the condition of 5% CO2 and 37° C. The next day, representative anti-cancer compounds (between 3 and 10 mM) were dissolved by dimethyl sulphoxide (DMSO) as a mother solution. Adriamycin was used as positive control, DMSO was used as negative control. According to experimental design, the mother solution was diluted and added to the 96 well cell culture plate, cultured for 48 hours under the condition of 5% CO2 and 37° C. Subsequently, 20 μL of MTS solution was added to each well of the 96 well cell culture plate and cultured for another 2 to 4 hours under the condition of 5% CO2 and 37° C. Absorbance was read at 490 nm wavelength, and converted into cell survival rate.
# (§5) For each concentration, there two measurements were taken and the average was obtained.
# SK-Br-3 cells = test: Cell growth inhibition assay (MTS assay), SK-Br-3; conditions: Homo sapiens, SK-BR-3, 48 h, read-out: Growth inhibition activity (EC50) SK-Br-3
# Method: as §2, §3, §4, §5
# A431 cells [7] = test: A431 cell growth inhibition assay (MTT assay); format: cell-based; conditions: Homo sapiens
# In short: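 A431 epidermoid carcinoma cells in DMEM/F12 (1:1) with 10% FBS were seeded at 2.5×10^4 cells/mL, attached overnight, then exposed to compound (final 10 μM to 1.52 nM) for 72 h at 37° C, 5% CO2. Viability was read by MTT (0.5 mg/mL, 4 h), formazan dissolved in DMSO, absorbance 490 nm.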
# BT474 cells [8] = test: BT-474 cell growth inhibition assay (SRB assay); format: cell-based; conditions: Homo sapiens, concentration of 3 μM, 72 h, read-out: Inhibition Percent (%)
# Method: BT-474 Cell Growth Inhibition Assay (SRB Assay)
# BT-474 human breast cancer cell lines were kindly provided by Dr. Changnian Liu, Pharmaron Beijing Co., Ltd.
# BT-474 cells were cultured in 37° C., 5% CO2, saturated humidity until logarithmic phase. Discarded culture medium, washed cells once by PBS. Added 1 ml Trypsin/EDTA solution, stood at 37° C. for 5 min, allowed the cells to detach. Added culture medium, adjusted the cells density to 1×10^5 cells/ml.
# Day 0, added 100 μl/well cells suspension to 96-well cell culture plates. Incubated overnight to let the cells attach completely.
# Day 1, compounds (2 mM in DMSO as stock solution) was diluted to 20 μM in EMEM. Then a fourfold serial dilution was made. These diluted compounds were made as 10× reaction solutions, and the concentration of DMSO was kept at 1%.
# Added 80 μl culture medium and 20 μl 10× compound reaction solution to the testing wells, or vehicle control to the control wells. Co-incubated cells with compounds for another 72 h.
# Day 3, fixed cellular protein by the addition of 100 μl/well of 10% TCA (diluting from 50% TCA) at 4° C. for 1 h. Rinsed TCA using plate washer, and washed five times using distilled water. Removed the residual wash solution with a piece of absorbent paper. Added 100 μl/well 0.4% SRB solution, allowed a 15-30 min staining period. Removed the SRB, and washed the culture plates five times using 1% acetic acid. Removed the residual wash solution with a piece of absorbent paper. Air-dried the culture plates, dissolved the protein-bound dye with 100 μl/well of 10 mM Tris base solution. Shook the plates until the dye was dissolved completely.
# [9] = A431 cells EGFR-TK phosphorylation stimulated by EGF (Table 4)
# [10] = A431 cells EGFR-TK phosphorylation stimulated by EGF (Table 5)
# [11] = A-431, A431 cells, MTS, 48 hours, read-out: Growth inhibition activity EC50
Structure (SMILES),EC50 [1] [µM],inhibition at 3 µM [2] [%],EC50 (A431 cells [4]; [11]) [µM],EC50 [5] [µM],EC50 (BT474 cells [6]) [µM],EC50 (SK-Br-3 cells) [µM],other results
"COc1cccc2c1C(=O)c1c(O)c3c(c(O)c1C2=O)C[C@@](O)(C(=O)CO)C[C@@H]3O[C@H]1C[C@H](N)[C@H](O)[C@H](C)O1 [Adriamycin, reference compound]",1.5,,,,,,
"O=C(C=C1CCNCC1)Nc1ccc2ncnc(Nc3cccc(Br)c3)c2c1 [Example 33, N-(4-(3-bromophenylamino)quinazolin-6-yl)-2-(piperidin-4-ylidene)acetamide]",,94,0.1,,,,"EC50 [2, 9]: 0.038 µM; EC50 [2, 10]: 0.038 µM; Inhibition percent(%) [3]: 89%; Activity (irreversible or reversible inhibitor) [3]: Irreversible inhibitor"
"COc1cc2ncnc(Nc3cccc(Br)c3)c2cc1NC(=O)C=C1CCNCC1 [Example 38, N-(4-(3-bromophenylamino)-7-methoxyquinazolin-6-yl)-2-(piperidin-4-ylidene)acetamide]",1.6,94,0.014,,,,
"COc1cc2ncnc(Nc3ccc(F)c(Cl)c3)c2cc1NC(=O)C=C1CCNCC1 [Example 43, N-(4-(3-chloro-4-fluorophenylamino)-7-methoxyquinazolin-6-yl)-2-(piperidin-4-ylidene)acetamide]",1.5,91,0.11,0.35,0.61,0.52,
"COc1cc2ncnc(Nc3ccc(F)c(Cl)c3)c2cc1NC(=O)C=C1CCN(C)CC1 [Example 72, N-(4-(3-chloro-4-fluorophenylamino)-7-methoxyquinazolin-6-yl)-2-(1-methylpiperidin-4-ylidene)acetamide]",1.8,97,0.09,0.82,1.31,0.8,
"COCCN1CCC(=CC(=O)Nc2cc3c(Nc4ccc(F)c(Cl)c4)ncnc3cc2OC)CC1 [Example 73, N-(4-(3-chloro-4-fluorophenylamino)-7-methoxyquinazolin-6-yl)-2-(1-(2-methoxyethyl)piperidin-4-ylidene)acetamide]",8,82,0.63,1.7,21.5,2.31,
"CCOc1cc2ncc(C#N)c(Nc3ccc(F)c(Cl)c3)c2cc1NC(=O)C=C1CCNCC1 [Example 150, N-(4-(3-chloro-4-fluorophenylamino)-3-cyano-7-ethoxyquinolin-6-yl)-2-(piperidin-4-ylidene)acetamide]",,46,,0.26,,,"EC50 (A431 cells [7]; A-431, 72 hours (Table 11)): 0.17 µM; inhibition at 3 µM (A431 cells [7]; A-431, concentration of 3 μM, 72 hours, read-out: Inhibition Percent (%)): 95%; inhibition at 3 µM (BT474 cells [8]): 56%"

# Continued, in another order:
EC50 [1] [µM],inhibition at 3 µM [2] [%],EC50 (A431 cells [4]; [11]) [µM],EC50 [5] [µM],EC50 (BT474 cells [6]) [µM],EC50 (SK-Br-3 cells) [µM],Structure (SMILES),other results
,87,0.6,,,,"O=C(C=C1CCNCC1)Nc1ccc2ncnc(Nc3ccc(F)c(Cl)c3)c2c1 [Example 32, N-(4-(3-chloro-4-fluorophenylamino)quinazolin-6-yl)-2-(piperidin-4-ylidene)acetamide]","EC50 [2, 9]: 0.09 µM; EC50 [2, 10]: 0.09 µM; Inhibition percent(%) [3]: 78%; Activity (irreversible or reversible inhibitor) [3]: Irreversible inhibitor"
3,,0.12,,,,"C#Cc1cccc(Nc2ncnc3cc(OC)c(NC(=O)C=C4CCNCC4)cc23)c1 [Example 42, N-(4-(3-ethynylphenylamino)-7-methoxyquinazolin-6-yl)-2-(piperidin-4-ylidene)acetamide]",
7.6,94,0.12,,,,"C#Cc1cccc(Nc2ncnc3cc(OC)c(NC(=O)C=C4CCN(C)CC4)cc23)c1 [Example 51, N-(4-(3-ethynylphenylamino)-7-methoxyquinazolin-6-yl)-2-(1-methylpiperidin-4-ylidene)acetamide]",
,44,,0.48,,,"COc1cc2ncnc(Nc3ccc(OCc4cccc(F)c4)c(Cl)c3)c2cc1NC(=O)C=C1CCNCC1 [Example 105, N-(4-(4-(3-fluorobenzyloxy)-3-chlorophenylamino)-7-methoxyquinazolin-6-yl)-2-(piperidin-4-ylidene)acetamide]",
7,,3,0.18,1.57,0.53,"COc1cc2ncnc(Nc3ccc(OCc4ccccn4)c(Cl)c3)c2cc1NC(=O)C=C1CCNCC1 [Example 108, N-(4-(3-chloro-4-(pyridin-2-ylmethoxy)phenylamino)-7-methoxyquinazolin-6-yl)-2-(piperidin-4-ylidene)acetamide]",
3.1,,0.11,,,,"CCOc1cc2ncc(C#N)c(Nc3cccc(Br)c3)c2cc1NC(=O)C=C1CCNCC1 [Example 154, N-(4-(3-bromophenylamino)-3-cyano-7-ethoxyquinolin-6-yl)-2-(piperidin-4-ylidene)acetamide]",
,,,,0.12,0.07,"CS(=O)(=O)CCNCc1ccc(-c2ccc3ncnc(Nc4ccc(OCc5cccc(F)c5)c(Cl)c4)c3c2)o1 [Lapatinib, reference compound]","EC50 (A431 cells [4]; A-431, 48 h, read-out: Growth inhibition activity EC50 (μM)): 1.19 µM"
